Data set [1] has as its target T1, human amylin receptor 3 (hAMYR3) consisting of hCTR2 co-expressed with human Receptor Activity Modifying Protein 3 (hRAMP3) (Homo sapiens, UniProt O60896+P30988).
T1 construct: expressed in transfected cells
T1 sequence (P30988 25-474): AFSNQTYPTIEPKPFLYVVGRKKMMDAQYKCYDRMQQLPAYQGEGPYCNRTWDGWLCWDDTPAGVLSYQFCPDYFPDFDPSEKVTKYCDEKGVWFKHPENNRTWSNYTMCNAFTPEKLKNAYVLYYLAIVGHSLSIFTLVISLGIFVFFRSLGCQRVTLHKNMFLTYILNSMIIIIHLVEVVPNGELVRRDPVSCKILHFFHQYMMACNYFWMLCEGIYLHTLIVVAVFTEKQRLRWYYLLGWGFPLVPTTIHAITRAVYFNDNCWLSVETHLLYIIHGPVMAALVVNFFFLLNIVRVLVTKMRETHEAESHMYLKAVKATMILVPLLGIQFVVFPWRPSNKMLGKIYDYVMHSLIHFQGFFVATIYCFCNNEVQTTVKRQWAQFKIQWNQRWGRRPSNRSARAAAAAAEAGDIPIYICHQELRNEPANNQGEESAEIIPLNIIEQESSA
T1 sequence (O60896 24-148 partner): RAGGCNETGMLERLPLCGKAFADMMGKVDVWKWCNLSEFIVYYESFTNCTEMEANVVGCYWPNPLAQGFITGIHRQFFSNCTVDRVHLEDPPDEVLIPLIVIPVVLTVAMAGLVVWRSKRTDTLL
Description: hAMYR3 assay: induction of cAMP (AlphaScreen cAMP Assay kit) in COS7 cells expressing hAMYR3. The class given is cell-based. In a few lines:
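Stable COS7 clone co-expressing hCTR2 and hRAMP3, stimulated 15 min at 37° C with increasing peptide in Tyrode buffer pH 7.4 with 100 µM IBMX and 0.1% casein. cAMP measured by AlphaScreen after lysis; EC50 and % efficacy versus pramlintide from 4PL fit.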
(Alpha assays give light when donor and acceptor beads are brought close together.)

Data set [2] can be described thus: Assessment of physical stability: fibril formation detected with Thioflavin T (ThT), lag-time. The class given is physicochemical. The note with it: 1 mg/ml peptide, 40 µM ThT, FND = Fibrillation not detected; for Fibrillation lag time (hours) pH 4.0 (Ac): 50 mM acetate buffer pH 4.0, 96 hours at 40°C; for Fibrillation lag time (hours) pH 7.0 (His): 50 mM histidine buffer pH 7.0, 96 hours at 40°C; for Fibrillation lag time (hours) pH 7.0 (Ph): 50 mM phosphate buffer pH 7.0, 96 hours at 40°C. The method, then: Solutions containing (i) 1 mg/ml of test peptide, 40 µM ThT and 50 mM phosphate (Ph) buffer (pH 7.0), (ii) 1 mg/ml of test peptide, 40 µM ThT and 50 mM histidine (His) buffer (pH 7.0), and (iii) 1 mg/ml of test peptide, 40 µM ThT and 50 mM acetate (Ac) buffer (pH 4.0), were loaded in a 96-well black fluorescence plate (clear bottom) in triplicate. Data were collected at fixed intervals of 10 min, each preceded by 300 s of automixing (agitation), over a period of 96 hours at 40° C. Physical stability, expressed as lag-time of fibril formation (in hours), was defined as the intersection between two linear regressions representing the initial stable phase and the growth phase.

In data set [3] the test system is Sprague Dawley (SD) rats. Description: Acute food intake and body weight in normal Sprague Dawley rats. The class given is in vivo. As to conditions: vehicle-corrected, dose 30 nmol/kg sc, once; for Body weight loss (%) after 96 hours: mean ± SEM, n = 8. How it is done:
Sprague Dawley (SD) rats were obtained from Taconic A/S, Denmark. The animals arrived at least 7 days before the study start to allow acclimatization to experimental conditions. From arrival and throughout the study, the rats were housed in groups of 2 (n = 2) in a light-, temperature- and humidity-controlled room (reversed 12/12 h light/dark cycle: lights turned off during day-time and on during night-time; temperature 20-22°C; relative humidity 50-80%). Animals had access ad libitum to food (Altromin™ 1324, Brogaarden A/S, Gentofte, Denmark) and water (domestic quality tap water with citric acid added to pH ∼ 3.6) during the entire study. Stratification of rats was based on body weight (BW) on a cage-by-cage basis; mean BWs per cage were used as the basis for pairing four cages together in a group (n = 8 per group). A vehicle group and positive control group were included in each set of tests. Rats were dosed subcutaneously (sc) once in the morning immediately before turning off the lights, using a body weight-corrected dose of peptide (30 nmol/kg). Dosing volume was 5 ml/kg. Food intake was recorded manually at t = 0 (pre-dose) and at t = 4, 7, 10, 24, 48, 72 and 96 hours after dosing. Body weight was measured daily.
Statistical analyses on body weight were performed using GraphPad™ Prism version 5. The measured parameters were compared using unpaired t tests. Differences were considered statistically significant at p < 0.05. Data are means ± SEM; n =8.

SMILES strings stand for the structures. Read-outs that look alike come from different tables or passages of the source. Marks after values point to notes of the source that are not given here. Numbered stars: 1 amine (or outer) side, 2 acyl side, 3 side chain; on linkers, the order of the positions; unused ones are H or OH. Bridge positions count the residues as written; N and C are the ends. Square brackets hold non-standard residues; d marks the D form. Peptide text beside a SMILES is read from it. * marks the point of attachment. C20 diacid = O=C(O)CCCCCCCCCCCCCCCCCCC(=O)*; γGlu = O=C(O)[C@H](CCC(=O)[*:2])N[*:1]; NMeI = CC[C@H](C)[C@H](NC)C(=O)O; Sar = CNCC(=O)O

In general, EC50 refers to the concentration giving half of the maximal effect. As for `CC[C@H](C)[C@@H](C(=O)N[C@@H](CC(C)C)C(=O)N[C@@H](CO)C(=O)N[C@@H](CO)C(=O)N[C@H](C(=O)N[C@@H](CC(N)=O)C(=O)N[C@H](C(=O)NCC(=O)N[C@@H](CO)C(=O)N[C@@H](CC(N)=O)C(=O)N[C@H](C(=O)N1CCC[C@H]1C(N)=O)[C@@H](C)O)C(C)C)[C@@H](C)O)N(C)C(=O)[C@H](C)NC(=O)CN(C)C(=O)[C@H](Cc1ccccc1)NC(=O)[C@H](CC(N)=O)NC(=O)[C@H](CC(N)=O)NC(=O)[C@H](CO)NC(=O)[C@H](CO)NC(=O)[C@H](Cc1c[nH]cn1)NC(=O)[C@H](Cc1c[nH]cn1)NC(=O)[C@H](CC(C)C)NC(=O)[C@H](Cc1ccccc1)NC(=O)[C@H](CCC(=O)O)NC(=O)[C@H](C)NC(=O)[C@H](CC(C)C)NC(=O)[C@H](CCCNC(=N)N)NC(=O)[C@H](CCC(N)=O)NC(=O)[C@@H](NC(=O)[C@H](C)NC(=O)[C@@H]1CSSC[C@H](NC(=O)[C@H](CCCNC(=N)N)NC(=O)CC[C@H](NC(=O)CCCCCCCCCCCCCCCCCCC(=O)O)C(=O)O)C(=O)N[C@@H](CC(N)=O)C(=O)N[C@@H]([C@@H](C)O)C(=O)N[C@@H](C)C(=O)N[C@@H]([C@@H](C)O)C(=O)N1)[C@@H](C)O` [Compound 1, [19CD]-isoGlu-RC()NTATC()ATQRLAEFLHHSSNNF-Gly(Me)-A-Ile(Me)-LSSTNVGSNTP-NH2] ({C20 diacid-γGlu}-RCNTATCATQRLAEFLHHSSNNF[Sar]A[NMeI]LSSTNVGSNTP-NH2; disulfide 2-7), in data set [1], the EC50 came out at 0.21 nM. Further, in data set [2], the “Fibrillation lag time (hours) pH 4.0 (Ac)” value was “FND^§§”, the “Fibrillation lag time (hours) pH 7.0 (His)” value is “FND” and the “Fibrillation lag time (hours) pH 7.0 (Ph)” value is recorded as “FND”. Also, in data set [3], the “Food intake inhibition (%) after 48 hours” value came out at 98% and the “Body weight loss (%) after 96 hours” value worked out at 9 ± 1.8%.

For the compound `CC[C@H](C)[C@@H](C(=O)N[C@@H](CC(C)C)C(=O)N[C@@H](CO)C(=O)N[C@@H](CO)C(=O)N[C@H](C(=O)N[C@@H](CC(N)=O)C(=O)N[C@H](C(=O)NCC(=O)N[C@@H](CO)C(=O)N[C@@H](CC(N)=O)C(=O)N[C@H](C(=O)N1CCC[C@H]1C(N)=O)[C@@H](C)O)C(C)C)[C@@H](C)O)N(C)C(=O)[C@H](C)NC(=O)CN(C)C(=O)[C@H](Cc1ccccc1)NC(=O)[C@H](CC(N)=O)NC(=O)[C@H](CC(N)=O)NC(=O)[C@H](CO)NC(=O)[C@H](CO)NC(=O)[C@H](CCCNC(=N)N)NC(=O)[C@H](Cc1c[nH]cn1)NC(=O)[C@H](CC(C)C)NC(=O)[C@H](Cc1ccccc1)NC(=O)[C@H](CCC(=O)O)NC(=O)[C@H](C)NC(=O)[C@H](CC(C)C)NC(=O)[C@H](CCCNC(=N)N)NC(=O)[C@H](CCC(N)=O)NC(=O)[C@@H](NC(=O)[C@H](C)NC(=O)[C@@H]1CSSC[C@H](NC(=O)[C@H](CCCCN)NC(=O)[C@H](CCCCN)NC(=O)CC[C@H](NC(=O)CCCCCCCCCCCCCCCCCCC(=O)O)C(=O)O)C(=O)N[C@@H](CC(N)=O)C(=O)N[C@@H]([C@@H](C)O)C(=O)N[C@@H](C)C(=O)N[C@@H]([C@@H](C)O)C(=O)N1)[C@@H](C)O` [Compound 87, [19CD]-isoGlu-KKC()NTATC()ATQRLAEFLHRSSNNF-Gly(Me)-A-Ile(Me)-LSSTNVGSNTP-NH2] ({C20 diacid-γGlu}-KKCNTATCATQRLAEFLHRSSNNF[Sar]A[NMeI]LSSTNVGSNTP-NH2; disulfide 3-8), in data set [2], the “Fibrillation lag time (hours) pH 4.0 (Ac)” value was 78^‡ hours, the “Fibrillation lag time (hours) pH 7.0 (His)” value is on record as “FND” and the “Fibrillation lag time (hours) pH 7.0 (Ph)” value is reported as 50^‡‡ hours. In addition, in data set [3], the “Food intake inhibition (%) after 48 hours” value was 98% and the “Body weight loss (%) after 96 hours” value turned out to be 10 ± 1.2%.

On to `CC[C@H](C)[C@@H](C(=O)N[C@@H](CC(C)C)C(=O)N1CCC[C@H]1C(=O)N1CCC[C@H]1C(=O)N[C@H](C(=O)N[C@@H](CC(N)=O)C(=O)N[C@H](C(=O)NCC(=O)N[C@@H](CO)C(=O)N[C@@H](CC(N)=O)C(=O)N[C@H](C(=O)N1CCC[C@H]1C(N)=O)[C@@H](C)O)C(C)C)[C@@H](C)O)N(C)C(=O)CN(C)C(=O)[C@H](Cc1ccccc1)NC(=O)[C@H](CC(N)=O)NC(=O)[C@H](CC(N)=O)NC(=O)[C@H](CO)NC(=O)[C@H](CO)NC(=O)[C@H](Cc1c[nH]cn1)NC(=O)[C@H](Cc1c[nH]cn1)NC(=O)[C@H](CC(C)C)NC(=O)[C@H](Cc1ccccc1)NC(=O)[C@H](CCC(=O)O)NC(=O)[C@H](C)NC(=O)[C@H](CC(C)C)NC(=O)[C@H](CCCNC(=N)N)NC(=O)[C@H](CCC(N)=O)NC(=O)[C@@H](NC(=O)[C@H](C)NC(=O)[C@@H]1CSSC[C@H](NC(=O)[C@H](CCCNC(=N)N)NC(=O)CC[C@H](NC(=O)CCCCCCCCCCCCCCCCCCC(=O)O)C(=O)O)C(=O)N[C@@H](CC(N)=O)C(=O)N[C@@H]([C@@H](C)O)C(=O)N[C@@H](C)C(=O)N[C@@H]([C@@H](C)O)C(=O)N1)[C@@H](C)O` [Compound 176, [19CD]-isoGlu-RC()NTATC()ATQRLAEFLHHSSNNF-Gly(Me)-Ile(Me)-LPPTNVGSNTP-NH2] ({C20 diacid-γGlu}-RCNTATCATQRLAEFLHHSSNNF[Sar][NMeI]LPPTNVGSNTP-NH2; disulfide 2-7), for which the EC50 in data set [1] (cAMP induction in COS7 cells expressing hAMYR3, average of a minimum of 3 determinations, read-out: hAMY R3 EC50) was found to be 0.17 nM.

Consider `CC[C@H](C)[C@H](NC(=O)[C@@H]1CCCN1C(=O)CNC(=O)[C@H](Cc1ccccc1)NC(=O)[C@H](CC(N)=O)NC(=O)[C@H](CC(N)=O)NC(=O)[C@H](CO)NC(=O)[C@H](CO)NC(=O)[C@H](Cc1c[nH]cn1)NC(=O)[C@H](Cc1c[nH]cn1)NC(=O)[C@H](CC(C)C)NC(=O)[C@H](Cc1ccccc1)NC(=O)[C@H](CCC(=O)O)NC(=O)[C@H](C)NC(=O)[C@H](CC(C)C)NC(=O)[C@H](CCCNC(=N)N)NC(=O)[C@H](CCC(N)=O)NC(=O)[C@@H](NC(=O)[C@H](C)NC(=O)[C@@H]1CSSC[C@H](NC(=O)[C@H](CCCNC(=N)N)NC(=O)CC[C@H](NC(=O)CCCCCCCCCCCCCCCCCCC(=O)O)C(=O)O)C(=O)N[C@@H](CC(N)=O)C(=O)N[C@@H]([C@@H](C)O)C(=O)N[C@@H](C)C(=O)N[C@@H]([C@@H](C)O)C(=O)N1)[C@@H](C)O)C(=O)N[C@@H](CC(C)C)C(=O)N1CCC[C@H]1C(=O)N1CCC[C@H]1C(=O)N[C@H](C(=O)N[C@@H](CC(N)=O)C(=O)N[C@H](C(=O)NCC(=O)N[C@@H](CO)C(=O)N[C@@H](CC(N)=O)C(=O)N[C@H](C(=O)N1CCC[C@H]1C(N)=O)[C@@H](C)O)C(C)C)[C@@H](C)O` [NN96, N-α-[(S)-4-carboxy-4-(19-carboxynonadecanoylamino)butyryl]-[Arg1,Glu14,His17,Pro37]-pramlintide, reference compound] ({C20 diacid-γGlu}-RCNTATCATQRLAEFLHHSSNNFGPILPPTNVGSNTP-NH2; disulfide 2-7), for which the EC50 in data set [1] is 0.15 nM.
